Consider 10 compounds from the NIST ThermoML archive (doi:10.1016/j.fluid.2006.07.015).

± gives the expanded uncertainty stated by the source.

The first series is described as follows: activity coefficient (dimensionless); of the first substance listed, at infinite dilution; xn = mol fraction of the nth substance listed. Conditions: 373.15 K; 101 kPa; Liquid; Chromatography; x1 = 0.
In the case of `CCCCCCCCCC` [decane] + CCCCCCCCCCCCCCCCCCC(CCCCCCCCCCCCCCCCCC)CCCCC(CCCCCCCCCCCCCCCCCC)CCCCCCCCCCCCCCCCCC, the activity coefficient was found to be 0.418 ± 0.034.
Still for that read-out and setting: to `CCCCCCCCCCCC` [dodecane] + CCCCCCCCCCCCCCCCCCC(CCCCCCCCCCCCCCCCCC)CCCCC(CCCCCCCCCCCCCCCCCC)CCCCCCCCCCCCCCCCCC belongs 0.456 ± 0.033; to `CCc1ccccc1` [ethylbenzene] + CCCCCCCCCCCCCCCCCCC(CCCCCCCCCCCCCCCCCC)CCCCC(CCCCCCCCCCCCCCCCCC)CCCCCCCCCCCCCCCCCC, 0.314 ± 0.035; to `CCCCCCC` [heptane] + CCCCCCCCCCCCCCCCCCC(CCCCCCCCCCCCCCCCCC)CCCCC(CCCCCCCCCCCCCCCCCC)CCCCCCCCCCCCCCCCCC, 0.361 ± 0.035.
Consider `C=CCCCC` [hex-1-ene] + CCCCCCCCCCCCCCCCCCC(CCCCCCCCCCCCCCCCCC)CCCCC(CCCCCCCCCCCCCCCCCC)CCCCCCCCCCCCCCCCCC, for which the activity coefficient came to 0.354 ± 0.035.
On the same count and under the same terms, in the case of `CCCCCC` [hexane] + CCCCCCCCCCCCCCCCCCC(CCCCCCCCCCCCCCCCCC)CCCCC(CCCCCCCCCCCCCCCCCC)CCCCCCCCCCCCCCCCCC it was 0.344 ± 0.035; in that of `CCCCCCc1ccccc1` [hexylbenzene] + CCCCCCCCCCCCCCCCCCC(CCCCCCCCCCCCCCCCCC)CCCCC(CCCCCCCCCCCCCCCCCC)CCCCCCCCCCCCCCCCCC, 0.397 ± 0.034.
With `CC1CCCCC1` [methylcyclohexane] + CCCCCCCCCCCCCCCCCCC(CCCCCCCCCCCCCCCCCC)CCCCC(CCCCCCCCCCCCCCCCCC)CCCCCCCCCCCCCCCCCC, the activity coefficient came out at 0.267 ± 0.036.
Take `c1ccc2ccccc2c1` [naphthalene] + CCCCCCCCCCCCCCCCCCC(CCCCCCCCCCCCCCCCCC)CCCCC(CCCCCCCCCCCCCCCCCC)CCCCCCCCCCCCCCCCCC: the activity coefficient came out at 0.384 ± 0.034.
Turning to `CCCCCCCCC` [nonane] + CCCCCCCCCCCCCCCCCCC(CCCCCCCCCCCCCCCCCC)CCCCC(CCCCCCCCCCCCCCCCCC)CCCCCCCCCCCCCCCCCC, the activity coefficient worked out at 0.399 ± 0.034.

The same series, now with this note: 388.15 K; 101 kPa; Liquid; Chromatography; x1 = 0.
Take `CCCCCCCCCC` [decane] + CCCCCCCCCCCCCCCCCCC(CCCCCCCCCCCCCCCCCC)CCCCC(CCCCCCCCCCCCCCCCCC)CCCCCCCCCCCCCCCCCC: the activity coefficient is 0.42 ± 0.034.
For `CCCCCCCCCCCC` [dodecane] + CCCCCCCCCCCCCCCCCCC(CCCCCCCCCCCCCCCCCC)CCCCC(CCCCCCCCCCCCCCCCCC)CCCCCCCCCCCCCCCCCC, the activity coefficient came to 0.457 ± 0.033.
Same read-out and setting: to `CCc1ccccc1` [ethylbenzene] + CCCCCCCCCCCCCCCCCCC(CCCCCCCCCCCCCCCCCC)CCCCC(CCCCCCCCCCCCCCCCCC)CCCCCCCCCCCCCCCCCC belongs 0.315 ± 0.035; to `CCCCCCC` [heptane] + CCCCCCCCCCCCCCCCCCC(CCCCCCCCCCCCCCCCCC)CCCCC(CCCCCCCCCCCCCCCCCC)CCCCCCCCCCCCCCCCCC, 0.363 ± 0.035.
Turning to `C=CCCCC` [hex-1-ene] + CCCCCCCCCCCCCCCCCCC(CCCCCCCCCCCCCCCCCC)CCCCC(CCCCCCCCCCCCCCCCCC)CCCCCCCCCCCCCCCCCC, the activity coefficient came out at 0.355 ± 0.035.
Consider `CCCCCC` [hexane] + CCCCCCCCCCCCCCCCCCC(CCCCCCCCCCCCCCCCCC)CCCCC(CCCCCCCCCCCCCCCCCC)CCCCCCCCCCCCCCCCCC, for which the activity coefficient was found to be 0.346 ± 0.035.
Still for that read-out and setting: to `CCCCCCc1ccccc1` [hexylbenzene] + CCCCCCCCCCCCCCCCCCC(CCCCCCCCCCCCCCCCCC)CCCCC(CCCCCCCCCCCCCCCCCC)CCCCCCCCCCCCCCCCCC belongs 0.405 ± 0.034.
For `CC1CCCCC1` [methylcyclohexane] + CCCCCCCCCCCCCCCCCCC(CCCCCCCCCCCCCCCCCC)CCCCC(CCCCCCCCCCCCCCCCCC)CCCCCCCCCCCCCCCCCC, the activity coefficient was determined as 0.273 ± 0.036.
For the compound `c1ccc2ccccc2c1` [naphthalene] + CCCCCCCCCCCCCCCCCCC(CCCCCCCCCCCCCCCCCC)CCCCC(CCCCCCCCCCCCCCCCCC)CCCCCCCCCCCCCCCCCC, the activity coefficient came out at 0.397 ± 0.034.
As to `CCCCCCCCC` [nonane] + CCCCCCCCCCCCCCCCCCC(CCCCCCCCCCCCCCCCCC)CCCCC(CCCCCCCCCCCCCCCCCC)CCCCCCCCCCCCCCCCCC, the activity coefficient stood at 0.401 ± 0.034.

The same series, now with this note: 403.15 K; 101 kPa; Liquid; Chromatography; x1 = 0.
With `CCCCCCCCCC` [decane] + CCCCCCCCCCCCCCCCCCC(CCCCCCCCCCCCCCCCCC)CCCCC(CCCCCCCCCCCCCCCCCC)CCCCCCCCCCCCCCCCCC, the activity coefficient was 0.421 ± 0.034.
Consider `CCCCCCCCCCCC` [dodecane] + CCCCCCCCCCCCCCCCCCC(CCCCCCCCCCCCCCCCCC)CCCCC(CCCCCCCCCCCCCCCCCC)CCCCCCCCCCCCCCCCCC, for which the activity coefficient was 0.459 ± 0.033.
For `CCc1ccccc1` [ethylbenzene] + CCCCCCCCCCCCCCCCCCC(CCCCCCCCCCCCCCCCCC)CCCCC(CCCCCCCCCCCCCCCCCC)CCCCCCCCCCCCCCCCCC, the activity coefficient was found to be 0.313 ± 0.035.
Consider `CCCCCCC` [heptane] + CCCCCCCCCCCCCCCCCCC(CCCCCCCCCCCCCCCCCC)CCCCC(CCCCCCCCCCCCCCCCCC)CCCCCCCCCCCCCCCCCC, for which the activity coefficient came to 0.365 ± 0.035.
With `C=CCCCC` [hex-1-ene] + CCCCCCCCCCCCCCCCCCC(CCCCCCCCCCCCCCCCCC)CCCCC(CCCCCCCCCCCCCCCCCC)CCCCCCCCCCCCCCCCCC, the activity coefficient amounted to 0.356 ± 0.035.
With `CCCCCC` [hexane] + CCCCCCCCCCCCCCCCCCC(CCCCCCCCCCCCCCCCCC)CCCCC(CCCCCCCCCCCCCCCCCC)CCCCCCCCCCCCCCCCCC, the activity coefficient is 0.348 ± 0.035.
Still for that read-out and setting: in the case of `CCCCCCc1ccccc1` [hexylbenzene] + CCCCCCCCCCCCCCCCCCC(CCCCCCCCCCCCCCCCCC)CCCCC(CCCCCCCCCCCCCCCCCC)CCCCCCCCCCCCCCCCCC it was 0.401 ± 0.034; in that of `CC1CCCCC1` [methylcyclohexane] + CCCCCCCCCCCCCCCCCCC(CCCCCCCCCCCCCCCCCC)CCCCC(CCCCCCCCCCCCCCCCCC)CCCCCCCCCCCCCCCCCC, 0.273 ± 0.036.
Regarding `c1ccc2ccccc2c1` [naphthalene] + CCCCCCCCCCCCCCCCCCC(CCCCCCCCCCCCCCCCCC)CCCCC(CCCCCCCCCCCCCCCCCC)CCCCCCCCCCCCCCCCCC, the activity coefficient worked out at 0.4 ± 0.034.
`CCCCCCCCC` [nonane] + CCCCCCCCCCCCCCCCCCC(CCCCCCCCCCCCCCCCCC)CCCCC(CCCCCCCCCCCCCCCCCC)CCCCCCCCCCCCCCCCCC: the activity coefficient came out at 0.403 ± 0.034.

The series is the same for the next values; noted with them: 418.15 K; 101 kPa; Liquid; Chromatography; x1 = 0.
Regarding `CCCCCCCCCC` [decane] + CCCCCCCCCCCCCCCCCCC(CCCCCCCCCCCCCCCCCC)CCCCC(CCCCCCCCCCCCCCCCCC)CCCCCCCCCCCCCCCCCC, the activity coefficient amounted to 0.423 ± 0.034.
On to `CCCCCCCCCCCC` [dodecane] + CCCCCCCCCCCCCCCCCCC(CCCCCCCCCCCCCCCCCC)CCCCC(CCCCCCCCCCCCCCCCCC)CCCCCCCCCCCCCCCCCC, for which the activity coefficient is 0.46 ± 0.033.
As to `CCc1ccccc1` [ethylbenzene] + CCCCCCCCCCCCCCCCCCC(CCCCCCCCCCCCCCCCCC)CCCCC(CCCCCCCCCCCCCCCCCC)CCCCCCCCCCCCCCCCCC, the activity coefficient was found to be 0.304 ± 0.035.
Take `CCCCCCC` [heptane] + CCCCCCCCCCCCCCCCCCC(CCCCCCCCCCCCCCCCCC)CCCCC(CCCCCCCCCCCCCCCCCC)CCCCCCCCCCCCCCCCCC: the activity coefficient came to 0.367 ± 0.034.
Regarding `C=CCCCC` [hex-1-ene] + CCCCCCCCCCCCCCCCCCC(CCCCCCCCCCCCCCCCCC)CCCCC(CCCCCCCCCCCCCCCCCC)CCCCCCCCCCCCCCCCCC, the activity coefficient was determined as 0.357 ± 0.035.
Same read-out and setting: to `CCCCCC` [hexane] + CCCCCCCCCCCCCCCCCCC(CCCCCCCCCCCCCCCCCC)CCCCC(CCCCCCCCCCCCCCCCCC)CCCCCCCCCCCCCCCCCC belongs 0.351 ± 0.035; to `CCCCCCc1ccccc1` [hexylbenzene] + CCCCCCCCCCCCCCCCCCC(CCCCCCCCCCCCCCCCCC)CCCCC(CCCCCCCCCCCCCCCCCC)CCCCCCCCCCCCCCCCCC, 0.404 ± 0.034.
For the compound `CC1CCCCC1` [methylcyclohexane] + CCCCCCCCCCCCCCCCCCC(CCCCCCCCCCCCCCCCCC)CCCCC(CCCCCCCCCCCCCCCCCC)CCCCCCCCCCCCCCCCCC, the activity coefficient stood at 0.272 ± 0.036.
As for `c1ccc2ccccc2c1` [naphthalene] + CCCCCCCCCCCCCCCCCCC(CCCCCCCCCCCCCCCCCC)CCCCC(CCCCCCCCCCCCCCCCCC)CCCCCCCCCCCCCCCCCC, the activity coefficient was determined as 0.392 ± 0.034.
As to `CCCCCCCCC` [nonane] + CCCCCCCCCCCCCCCCCCC(CCCCCCCCCCCCCCCCCC)CCCCC(CCCCCCCCCCCCCCCCCC)CCCCCCCCCCCCCCCCCC, the activity coefficient stood at 0.404 ± 0.034.

Still in this series, the particulars now being: 433.15 K; 101 kPa; Liquid; Chromatography; x1 = 0.
For the compound `CCCCCCCCCC` [decane] + CCCCCCCCCCCCCCCCCCC(CCCCCCCCCCCCCCCCCC)CCCCC(CCCCCCCCCCCCCCCCCC)CCCCCCCCCCCCCCCCCC, the activity coefficient turned out to be 0.425 ± 0.034.
Same read-out and setting: in the case of `CCCCCCCCCCCC` [dodecane] + CCCCCCCCCCCCCCCCCCC(CCCCCCCCCCCCCCCCCC)CCCCC(CCCCCCCCCCCCCCCCCC)CCCCCCCCCCCCCCCCCC it was 0.462 ± 0.033; in that of `CCc1ccccc1` [ethylbenzene] + CCCCCCCCCCCCCCCCCCC(CCCCCCCCCCCCCCCCCC)CCCCC(CCCCCCCCCCCCCCCCCC)CCCCCCCCCCCCCCCCCC, 0.304 ± 0.035.
Same read-out and setting: to `CCCCCCC` [heptane] + CCCCCCCCCCCCCCCCCCC(CCCCCCCCCCCCCCCCCC)CCCCC(CCCCCCCCCCCCCCCCCC)CCCCCCCCCCCCCCCCCC belongs 0.37 ± 0.03; to `C=CCCCC` [hex-1-ene] + CCCCCCCCCCCCCCCCCCC(CCCCCCCCCCCCCCCCCC)CCCCC(CCCCCCCCCCCCCCCCCC)CCCCCCCCCCCCCCCCCC, 0.359 ± 0.035.
In the case of `CCCCCC` [hexane] + CCCCCCCCCCCCCCCCCCC(CCCCCCCCCCCCCCCCCC)CCCCC(CCCCCCCCCCCCCCCCCC)CCCCCCCCCCCCCCCCCC, the activity coefficient worked out at 0.355 ± 0.035.
For the compound `CCCCCCc1ccccc1` [hexylbenzene] + CCCCCCCCCCCCCCCCCCC(CCCCCCCCCCCCCCCCCC)CCCCC(CCCCCCCCCCCCCCCCCC)CCCCCCCCCCCCCCCCCC, the activity coefficient amounted to 0.401 ± 0.034.
Regarding `CC1CCCCC1` [methylcyclohexane] + CCCCCCCCCCCCCCCCCCC(CCCCCCCCCCCCCCCCCC)CCCCC(CCCCCCCCCCCCCCCCCC)CCCCCCCCCCCCCCCCCC, the activity coefficient came to 0.275 ± 0.036.
Regarding `c1ccc2ccccc2c1` [naphthalene] + CCCCCCCCCCCCCCCCCCC(CCCCCCCCCCCCCCCCCC)CCCCC(CCCCCCCCCCCCCCCCCC)CCCCCCCCCCCCCCCCCC, the activity coefficient came out at 0.386 ± 0.034.
For `CCCCCCCCC` [nonane] + CCCCCCCCCCCCCCCCCCC(CCCCCCCCCCCCCCCCCC)CCCCC(CCCCCCCCCCCCCCCCCC)CCCCCCCCCCCCCCCCCC, the activity coefficient was 0.406 ± 0.034.
